From ChEMBL document CHEMBL1139006, “Synthesis and in vitro antibiotic activity of 16-membered 9-O-arylalkyloxime macrolides” (2006)
Values after ≈ are worked out from the molar mass of the structure shown.

Assays:
Type in all cases: functional
Streptococcus pneumoniae [1] = experiment: Antibacterial activity against Streptococcus pneumoniae ATCC 6301
Streptococcus pneumoniae [2] = experiment: Antibacterial activity against Streptococcus pneumoniae ATCC 700671
Streptococcus pneumoniae [3] = experiment: Antibacterial activity against macrolide resistant Streptococcus pneumoniae ATCC 700676
Streptococcus pneumoniae [4] = experiment: Antibacterial activity against macrolide resistant Streptococcus pneumoniae ATCC 700677
Streptococcus pneumoniae [5] = experiment: Antibacterial activity against macrolide resistant Streptococcus pneumoniae ATCC 700905
Streptococcus pneumoniae [6] = experiment: Antibacterial activity against macrolide resistant Streptococcus pneumoniae ATCC 700906
Streptococcus pneumoniae [7] = experiment: Antibacterial activity against Streptococcus pneumoniae ATCC 49619
Staphylococcus aureus [8] = experiment: Antibacterial activity against Staphylococcus aureus ATCC 6538p
Staphylococcus aureus [9] = experiment: Antibacterial activity against macrolide resistant Staphylococcus aureus ATCC 33591
Staphylococcus aureus [10] = experiment: Antibacterial activity against macrolide resistant Staphylococcus aureus ATCC 141541
Staphylococcus aureus [11] = experiment: Antibacterial activity against macrolide resistant Staphylococcus aureus ATCC BAA-39
Staphylococcus aureus [12] = experiment: Antibacterial activity against macrolide resistant Staphylococcus aureus ATCC BAA-44
Staphylococcus aureus [13] = experiment: Antibacterial activity against Staphylococcus aureus ATCC 29213
[14] = test system: Staphylococcus epidermidis; experiment: Antibacterial activity against Staphylococcus epidermidis ATCC 12228
Enterococcus faecalis = experiment: Antibacterial activity against Enterococcus faecalis ATCC 51575

SMILES	MIC (Streptococcus pneumoniae [1]) [µg/mL]	MIC (Streptococcus pneumoniae [2]) [µg/mL]	MIC (Streptococcus pneumoniae [3]) [µg/mL]	MIC (Streptococcus pneumoniae [4]) [µg/mL]	MIC (Streptococcus pneumoniae [5]) [µg/mL]	MIC (Streptococcus pneumoniae [6]) [µg/mL]	MIC (Streptococcus pneumoniae [7]) [µg/mL]	MIC (Staphylococcus aureus [8]) [µg/mL]	MIC (Staphylococcus aureus [9]) [µg/mL]	MIC (Staphylococcus aureus [10]) [µg/mL]	MIC (Staphylococcus aureus [11]) [µg/mL]	MIC (Staphylococcus aureus [12]) [µg/mL]	MIC (Staphylococcus aureus [13]) [µg/mL]	MIC [14] [µg/mL]	MIC (Enterococcus faecalis) [µg/mL]
CC[C@H]1OC(=O)C[C@@H](O)[C@H](C)[C@@H](O[C@@H]2O[C@H](C)[C@@H](O)[C@H](N(C)C)[C@H]2O)[C@@H](CC=O)C[C@@H](C)C(=N/OCCCCOc2ccc3ncccc3c2)/C=C/C(C)=C/C1CO (stereo not given in full)	0.025 (≈ 0.0308 µM)	0.025 (≈ 0.0308 µM)	0.025 (≈ 0.0308 µM)	0.39 (≈ 0.48 µM)	0.025 (≈ 0.0308 µM)	> 12.5	0.01 (≈ 0.0123 µM)	0.2 (≈ 0.246 µM)	> 12.5	0.78 (≈ 0.961 µM)	> 12.5	> 12.5	0.78 (≈ 0.961 µM)	0.2 (≈ 0.246 µM)	> 12.5
CC[C@H]1OC(=O)C[C@@H](O)[C@H](C)[C@@H](O[C@@H]2O[C@H](C)[C@@H](O)[C@H](N(C)C)[C@H]2O)[C@@H](CC=O)C[C@@H](C)C(=N/OCc2ccccc2)/C=C/C(C)=C/C1CO (stereo not given in full)	0.025 (≈ 0.0356 µM)	0.2 (≈ 0.285 µM)	0.025 (≈ 0.0356 µM)	1.56 (≈ 2.22 µM)	0.2 (≈ 0.285 µM)	> 12.5	0.2 (≈ 0.285 µM)	0.39 (≈ 0.555 µM)	> 12.5	1.56 (≈ 2.22 µM)	> 12.5	> 12.5	1.56 (≈ 2.22 µM)	0.78 (≈ 1.11 µM)	> 12.5
CC[C@H]1OC(=O)C[C@@H](O)[C@H](C)[C@@H](O[C@@H]2O[C@H](C)[C@@H](O)[C@H](N(C)C)[C@H]2O)[C@@H](CC=O)C[C@@H](C)C(=N/OC/C=C\c2cnc3ccccc3c2)/C=C/C(C)=C/C1CO (stereo not given in full)	0.025 (≈ 0.0321 µM)	0.025 (≈ 0.0321 µM)	0.049 (≈ 0.0628 µM)	> 12.5	0.049 (≈ 0.0628 µM)	> 12.5	0.025 (≈ 0.0321 µM)	0.2 (≈ 0.256 µM)	> 12.5	0.78 (≈ 1 µM)	> 12.5	> 12.5	0.78 (≈ 1 µM)	0.39 (≈ 0.5 µM)	> 12.5
CC[C@H]1OC(=O)C[C@@H](O)[C@H](C)[C@@H](O[C@@H]2O[C@H](C)[C@@H](O)[C@H](N(C)C)[C@H]2O)[C@@H](CC=O)C[C@@H](C)C(=N/OCC(=O)N2CCN(c3ccccc3)CC2)/C=C/C(C)=C/C1CO (stereo not given in full)	0.025 (≈ 0.0307 µM)	0.025 (≈ 0.0307 µM)	0.39 (≈ 0.479 µM)	6.25 (≈ 7.67 µM)	0.2 (≈ 0.245 µM)	> 12.5	0.01 (≈ 0.0123 µM)	0.78 (≈ 0.957 µM)	> 12.5	1.56 (≈ 1.91 µM)	> 12.5	> 12.5	1.56 (≈ 1.91 µM)	0.2 (≈ 0.245 µM)	> 12.5
CC[C@H]1OC(=O)C[C@@H](O)[C@H](C)[C@@H](O[C@@H]2O[C@H](C)[C@@H](O)[C@H](N(C)C)[C@H]2O)[C@@H](CC=O)C[C@@H](C)C(=N\OCC#Cc2cnc3ccccc3c2)/C=C/C(C)=C/C1CO (stereo not given in full)	0.025 (≈ 0.0321 µM)	0.049 (≈ 0.063 µM)	0.049 (≈ 0.063 µM)	> 12.5	0.049 (≈ 0.063 µM)	> 12.5	0.049 (≈ 0.063 µM)	0.098 (≈ 0.126 µM)	> 12.5	0.78 (≈ 1 µM)	> 12.5	> 12.5	0.39 (≈ 0.501 µM)	0.2 (≈ 0.257 µM)	> 12.5
CC[C@H]1OC(=O)C[C@@H](O)[C@H](C)[C@@H](O[C@@H]2O[C@H](C)[C@@H](O)[C@H](N(C)C)[C@H]2O)[C@@H](CC=O)C[C@@H](C)C(=N\OCCOc2ccccc2)/C=C/C(C)=C/C1CO (stereo not given in full)	0.098 (≈ 0.134 µM)	0.39 (≈ 0.532 µM)	0.2 (≈ 0.273 µM)	1.56 (≈ 2.13 µM)	0.78 (≈ 1.06 µM)	> 12.5	0.2 (≈ 0.273 µM)	1.56 (≈ 2.13 µM)	> 12.5	3.12 (≈ 4.26 µM)	> 12.5	> 12.5	3.12 (≈ 4.26 µM)	1.56 (≈ 2.13 µM)	> 12.5
CC[C@H]1OC(=O)C[C@@H](O)[C@H](C)[C@@H](O[C@@H]2O[C@H](C)[C@@H](O)[C@H](N(C)C)[C@@H]2O)[C@@H](CCN2CC(C)CC(C)C2)C[C@@H](C)C(=N\OCCCCc2ccc3ccccc3c2)/C=C/C(C)=C/C1CO (stereo not given in full)	6.25 (≈ 7 µM)	12.5 (≈ 14 µM)	> 12.5	> 12.5	12.5 (≈ 14 µM)	> 12.5	12.5 (≈ 14 µM)	> 12.5	> 12.5	> 12.5	> 12.5	> 12.5	> 12.5	> 12.5	> 12.5
CC[C@H]1OC(=O)C[C@@H](O)[C@H](C)[C@@H](O[C@@H]2O[C@H](C)[C@@H](O)[C@H](N(C)C)[C@H]2O)[C@@H](CC=O)C[C@@H](C)C(=N/OC/C=C\c2ccc3nccnc3c2)/C=C/C(C)=C/C1CO (stereo not given in full)	0.025 (≈ 0.032 µM)	0.049 (≈ 0.0627 µM)	0.049 (≈ 0.0627 µM)	> 12.5	0.049 (≈ 0.0627 µM)	> 12.5	0.025 (≈ 0.032 µM)	0.2 (≈ 0.256 µM)	> 12.5	0.39 (≈ 0.499 µM)	> 12.5	> 12.5	0.39 (≈ 0.499 µM)	0.2 (≈ 0.256 µM)	> 12.5
CC[C@H]1OC(=O)C[C@@H](O)[C@H](C)[C@@H](O[C@@H]2O[C@H](C)[C@@H](O)[C@H](N(C)C)[C@@H]2O)[C@@H](CCN2CC(C)CC(C)C2)C[C@@H](C)C(=N\OCCOc2ccccc2)/C=C/C(C)=C/C1CO (stereo not given in full)	0.2 (≈ 0.241 µM)	0.39 (≈ 0.47 µM)	0.78 (≈ 0.94 µM)	> 12.5	0.39 (≈ 0.47 µM)	> 12.5	0.39 (≈ 0.47 µM)	0.78 (≈ 0.94 µM)	> 12.5	6.25 (≈ 7.53 µM)	> 12.5	> 12.5	6.25 (≈ 7.53 µM)	6.25 (≈ 7.53 µM)	> 12.5
CC[C@H]1OC(=O)C[C@@H](O)[C@H](C)[C@@H](O[C@@H]2O[C@H](C)[C@@H](O)[C@H](N(C)C)[C@@H]2O)[C@@H](CCN2CC(C)CC(C)C2)C[C@@H](C)C(=N/OCCCc2ccc3ncccc3c2)/C=C/C(C)=C/C1CO (stereo not given in full)	6.25 (≈ 7.11 µM)	6.25 (≈ 7.11 µM)	> 12.5	> 12.5	> 12.5	> 12.5	6.25 (≈ 7.11 µM)	12.5 (≈ 14.2 µM)	> 12.5	> 12.5	> 12.5	> 12.5	> 12.5	> 12.5	> 12.5
CC[C@H]1OC(=O)C[C@@H](O)[C@H](C)[C@@H](O[C@@H]2O[C@H](C)[C@@H](O)[C@H](N(C)C)[C@@H]2O)[C@@H](CCN2CC(C)CC(C)C2)C[C@@H](C)C(=N\OCc2ccc(F)cc2)/C=C/C(C)=C/C1CO (stereo not given in full)	0.39 (≈ 0.477 µM)	0.39 (≈ 0.477 µM)	0.39 (≈ 0.477 µM)	> 12.5	0.39 (≈ 0.477 µM)	> 12.5	0.39 (≈ 0.477 µM)	0.78 (≈ 0.953 µM)	> 12.5	3.12 (≈ 3.81 µM)	> 12.5	> 12.5	3.12 (≈ 3.81 µM)	3.12 (≈ 3.81 µM)	> 12.5
CC[C@H]1OC(=O)C[C@@H](O)[C@H](C)[C@@H](O[C@@H]2O[C@H](C)[C@@H](O)[C@H](N(C)C)[C@H]2O)[C@@H](CC=O)C[C@@H](C)C(=N/OCCOc2ccccc2)/C=C/C(C)=C/C1CO (stereo not given in full)	0.025 (≈ 0.0341 µM)	0.025 (≈ 0.0341 µM)	0.025 (≈ 0.0341 µM)	0.39 (≈ 0.532 µM)	0.025 (≈ 0.0341 µM)	> 12.5	0.01 (≈ 0.0136 µM)	0.098 (≈ 0.134 µM)	> 12.5	0.39 (≈ 0.532 µM)	> 12.5	> 12.5	0.2 (≈ 0.273 µM)	0.2 (≈ 0.273 µM)	> 12.5
CC[C@H]1OC(=O)C[C@@H](O)[C@H](C)[C@@H](O[C@@H]2O[C@H](C)[C@@H](O)[C@H](N(C)C)[C@H]2O)[C@@H](CC=O)C[C@@H](C)C(=N\OCc2ccccc2)/C=C/C(C)=C/C1CO (stereo not given in full)	0.2 (≈ 0.285 µM)	0.39 (≈ 0.555 µM)	0.2 (≈ 0.285 µM)	3.12 (≈ 4.44 µM)	0.39 (≈ 0.555 µM)	> 12.5	0.2 (≈ 0.285 µM)	0.78 (≈ 1.11 µM)	> 12.5	1.56 (≈ 2.22 µM)	> 12.5	> 12.5	1.56 (≈ 2.22 µM)	1.56 (≈ 2.22 µM)	> 12.5
CC[C@H]1OC(=O)C[C@@H](O)[C@H](C)[C@@H](O[C@@H]2O[C@H](C)[C@@H](O)[C@H](N(C)C)[C@@H]2O)[C@@H](CCN2CC(C)CC(C)C2)C[C@@H](C)C(=N\OCC(=O)N2CCN(c3ccccc3)CC2)/C=C/C(C)=C/C1CO (stereo not given in full)	0.049 (≈ 0.0537 µM)	0.098 (≈ 0.107 µM)	4.56 (≈ 5 µM)	> 12.5	0.78 (≈ 0.855 µM)	> 12.5	0.049 (≈ 0.0537 µM)	0.39 (≈ 0.428 µM)	> 12.5	3.12 (≈ 3.42 µM)	> 12.5	> 12.5	1.56 (≈ 1.71 µM)	0.78 (≈ 0.855 µM)	> 12.5
CC[C@H]1OC(=O)C[C@@H](O)[C@H](C)[C@@H](O[C@@H]2O[C@H](C)[C@@H](O)[C@H](N(C)C)[C@H]2O)[C@@H](CC=O)C[C@@H](C)C(=N\OC/C=C/c2cnc3ccccc3c2)/C=C/C(C)=C/C1CO (stereo not given in full)	0.025 (≈ 0.0321 µM)	0.049 (≈ 0.0628 µM)	0.049 (≈ 0.0628 µM)	> 12.5	0.049 (≈ 0.0628 µM)	> 12.5	0.025 (≈ 0.0321 µM)	0.098 (≈ 0.126 µM)	> 12.5	0.39 (≈ 0.5 µM)	> 12.5	> 12.5	0.39 (≈ 0.5 µM)	0.049 (≈ 0.0628 µM)	> 12.5
CC[C@H]1OC(=O)C[C@@H](O)[C@H](C)[C@@H](O[C@@H]2O[C@H](C)[C@@H](O)[C@H](N(C)C)[C@H]2O)[C@@H](CC=O)C[C@@H](C)C(=N/OCC#Cc2cnc3ccccc3c2)/C=C/C(C)=C/C1CO (stereo not given in full)	0.025 (≈ 0.0321 µM)	0.025 (≈ 0.0321 µM)	0.025 (≈ 0.0321 µM)	> 12.5	0.049 (≈ 0.063 µM)	> 12.5	0.025 (≈ 0.0321 µM)	0.098 (≈ 0.126 µM)	> 12.5	0.39 (≈ 0.501 µM)	> 12.5	> 12.5	0.39 (≈ 0.501 µM)	0.098 (≈ 0.126 µM)	> 12.5
